# Assay results taken from ChEMBL document CHEMBL5120901, “Batatasin III, a Constituent of Dendrobium scabrilingue, Improves Murine Pain-like Behaviors with a Favorable CNS Safety Profile” (J Nat Prod, 2022).
# Active and inactive are the calls of the source. No cut-off for these calls is given here.
# Columns and labels:
# [1] = CNS toxicity in naive ICR mouse assessed as reduction in rotarod latency time at 5 mg/kg, ip measured at <240 mins by rotarod test; assay type: organism-based; details: in vivo, 4 h
# [2] = CNS toxicity in naive ICR mouse assessed as motor coordination at 5 mg/kg, ip measured after 240 mins by rotarod test; assay type: organism-based; details: in vivo, 4 h
# [3] = CNS toxicity in naive ICR mouse assessed as reduction in spontaneous locomotor activity by measuring reduction in climbing behaviour at 5 mg/kg, ip and measured for 30 mins by LABORAS automated behavioral analysis; assay type: organism-based; details: in vivo, 0.5 h
# [4] = CNS toxicity in naive ICR mouse assessed as reduction in spontaneous locomotor activity at 5 mg/kg, ip and measured for 30 mins by LABORAS automated behavioral analysis; assay type: organism-based; details: in vivo, 0.5 h
# [5] = CNS toxicity in naive ICR mouse assessed as reduction in spontaneous locomotor activity by measuring increase in immobility behaviour at 5 mg/kg, ip and measured for 30 mins by LABORAS automated behavioral analysis; assay type: organism-based; details: in vivo, 0.5 h
# [6] = CNS toxicity in naive ICR mouse assessed as reduction in spontaneous locomotor activity by measuring reduction in rearing behaviour at 5 mg/kg, ip and measured for 30 mins by LABORAS automated behavioral analysis; assay type: organism-based; details: in vivo, 0.5 h
# [7] = CNS toxicity in naive ICR mouse assessed as reduction in spontaneous locomotor activity by measuring reduction in animal's movement speed in arena at 5 mg/kg, ip and measured for 30 mins by LABORAS automated behavioral analysis; assay type: organism-based; details: in vivo, 0.5 h
# [8] = CNS toxicity in naive ICR mouse assessed as reduction in spontaneous locomotor activity by measuring reduction in distance travelled in arena at 5 mg/kg, ip and measured for 30 mins by LABORAS automated behavioral analysis; assay type: organism-based; details: in vivo, 0.5 h
# [9] = CNS toxicity in naive ICR mouse assessed as reduction in spontaneous locomotor activity by measuring reduction in climbing behaviour at 5 mg/kg, ip and measured for 2 hrs by LABORAS automated behavioral analysis; assay type: organism-based; details: in vivo
# [10] = CNS toxicity in naive ICR mouse assessed as reduction in spontaneous locomotor activity at 5 mg/kg, ip and measured for 2 hrs by LABORAS automated behavioral analysis; assay type: organism-based; details: in vivo
# [11] = CNS toxicity in naive ICR mouse assessed as reduction in spontaneous locomotor activity by measuring increase in immobility behaviour at 5 mg/kg, ip and measured for 2 hrs by LABORAS automated behavioral analysis; assay type: organism-based; details: in vivo
# [12] = CNS toxicity in naive ICR mouse assessed as reduction in spontaneous locomotor activity by measuring reduction in rearing behaviour at 5 mg/kg, ip and measured for 2 hrs by LABORAS automated behavioral analysis; assay type: organism-based; details: in vivo
# [13] = CNS toxicity in naive ICR mouse assessed as reduction in spontaneous locomotor activity by measuring reduction in animal's movement speed in arena at 5 mg/kg, ip and measured for 2 hrs by LABORAS automated behavioral analysis; assay type: organism-based; details: in vivo
# [14] = CNS toxicity in naive ICR mouse assessed as reduction in spontaneous locomotor activity by measuring reduction in distance travelled in arena at 5 mg/kg, ip and measured for 2 hrs by LABORAS automated behavioral analysis; assay type: organism-based; details: in vivo
# [15] = tested on: Mus musculus; assay: Analgesic activity against formalin-induced inflammatory pain-like behaviour ICR mouse model assessed as inhibition of hind paw licking behaviour at 10 mg/kg, ip administered 60 mins prior to formalin challenge and measured after 10 to 40 mins by formalin test; assay type: functional; details: time 70-100 min
# [16] = tested on: Mus musculus; assay: (§1) Anti-inflammatory activity against LPS-induced inflammatory pain-like behaviour ICR mouse model assessed as improvement in locomotor activity by measuring increased mobile behaviours at 10 mg/kg, ip treated with LPS for 2 hrs followed by drug administration for 1 hr and measured for 5 mins by LABORAS analysis; assay type: functional, organism-based; details: time 65.0 min
# [17] = tested on: Mus musculus; assay: as §1, with “increase in animal's movement speed in LABORAS arena” for “increased mobile behaviours”; assay type: functional, organism-based; details: time 65.0 min
# [18] = tested on: Mus musculus; assay: as §1, with “increase in distance travelled in LABORAS arena” for “increased mobile behaviours”; assay type: functional, organism-based; details: time 65.0 min
# [19] = tested on: Mus musculus; assay: as §1, with “decrease in immobility behaviour” for “increased mobile behaviours”; assay type: functional, organism-based; details: time 65.0 min
# [20] = tested on: Mus musculus; assay: Anti-inflammatory activity against LPS-induced inflammatory pain-like behaviour ICR mouse model assessed as reduction in TNF-alpha levels in plasma at 10 mg/kg, ip treated with LPS for 2 hrs followed by drug administration for 1 hr by ELISA; assay type: functional, organism-based
# [21] = tested on: Mus musculus; assay: Anti-inflammatory activity against LPS-induced inflammatory pain-like behaviour ICR mouse model assessed as reduction in IL-6 levels in plasma at 10 mg/kg, ip treated with LPS for 2 hrs followed by drug administration for 1 hr by ELISA; assay type: functional, organism-based
compound,measurement,setting,value
CN(C)CCCN1c2ccccc2Sc2ccc(Cl)cc21 [CHLORPROMAZINE],Activity,[1],Toxic
same,Activity,[2],Non-Toxic
same,Activity,[3],Toxic
same,Activity,[4],Toxic
same,Activity,[5],Toxic
same,Activity,[6],Toxic
same,Activity,[7],Toxic
same,Activity,[8],Toxic
same,Activity,[9],Toxic
same,Activity,[10],Toxic
same,Activity,[11],Toxic
same,Activity,[12],Toxic
same,Activity,[13],Toxic
same,Activity,[14],Toxic
COc1ccc2c(c1)c(CC(=O)O)c(C)n2C(=O)c1ccc(Cl)cc1 [INDOMETHACIN],inhibition in vivo at 10 mg/kg,[15],71.6%
same,Activity,[16],Active
same,Activity,[17],Active
same,Activity,[18],Active
same,Activity,[19],Active
same,Activity,[20],Active
same,Activity,[21],Active
